USRE39125E1, “Swallowing-assistive drink” (Ryukakusan Co. LTD, priority 2000, dated 2006)

Assay: Fluoroscopic video-radiography of taking a barium-filled No. 2 capsule, mouth to stomach
Format: in vivo
Settings: patient with difficulty in swallowing; barium-filled No. 2 capsule with about 20 ml of drink
Description: First, the purpose of this test was explained to a patient (the person) who had difficulty in swallowing when taking medicines with water, and their consent was acquired.
Next, barium powder was filled up in a No. 2 capsule and the capsule was used as a placebo. The placebo was taken by the patient with about 20 ml of the swallowing-assistive drink of the present invention, while fluoroscopic video-radiographs of the conditions of taking this medicine were taken by scanning from the mouth to the stomach of the patient. The image information obtained was put into a personal computer and the time-course changes were analyzed as still image data of two sheets a second.

Structure (SMILES): O [water]
- time to move from the mouth to the stomach: about 18 sec
